# Legend:
# [1] = test system: patients who have an acute COPD exacerbation; assay: Clinical study in acute COPD exacerbation: patient disposition / discontinuation; format: in vivo; settings: for Reason for discontinuation: Death: 2nd interim, 30 days of follow-up, Compound A N = 31, Prednisone N = 30; for Reason for discontinuation: Adverse Events: human, in vivo
# Experimental: (§1) An exploratory, randomized, double-blind, placebo controlled, multi-center study to assess the efficacy, safety and tolerability of a single 75 mg dose of 3-[5-amino-4-(3-cyano-benzoyl)-pyrazol-1-yl]-N-cyclopropyl-4-methylbenzamide administered orally to patients who have an acute COPD exacerbation
# (§2) The efficacy, safety and tolerability of a single 75 mg dose of 3-[5-amino-4-(3-cyano-benzoyl)-pyrazol-1-yl]-N-cyclopropyl-4-methylbenzamide (Compound A) administered orally to patients who have an acute COPD exacerbation was conducted.
# (§3) 90 patients were randomized 1:1:1 to three treatment arms.
# (§4) =single 75 mg dose of Compound A on day 1+prednisone placebo×10 days
# (§5) =single dose of Compound A placebo on day 1+prednisone placebo×10 days
# (§6) =single dose of Compound A placebo on day 1+40 mg oral prednisone […]×10 days
# (§7) =doxycycline 100 mg dose×10 days or a non-macrolide antibiotic concurrent with local prescribing antibiotic guidelines.
# (§8) Present data (at 2nd interim) includes total of 91 randomized patients with 30 days of follow-up.
# [2] = test system: patients who have an acute COPD exacerbation; assay: Clinical study in acute COPD exacerbation: safety and tolerability (adverse events); format: in vivo, human
# Experimental: as §1, §2
# Secondary objectives: Safety and tolerability, patient reported outcomes, and time to next exacerbation.
# as §3, §4, §5, §6, §7
# Initial hospitalization for COPD exacerbation at baseline was not recorded as a serious adverse event (SAE). Only subsequent admissions were recorded. […] No rash was noted. No unusual events or imbalances between treatment arms were noted.
# [3] = test system: patients who have an acute COPD exacerbation; assay: Clinical study in acute COPD exacerbation: dyspnea by Borg CR 10 scores; format: in vivo, human; parameters: AUC[days 2-14] in Borg CR 10 scores, Difference LS mean, Compound A - prednisone / AUC[days 2-14] in Borg CR 10 scores (adjusted for Day 1), LS mean / AUC[days 2-14] in Borg CR 10 scores, Difference LS mean, treatment - placebo: unit not given beside the values; settings: for AUC[days 2-14] in Borg CR 10 scores (adjusted for Day 1), LS mean: per treatment arm; for AUC[days 2-14] in Borg CR 10 scores, Difference LS mean, treatment - placebo: versus placebo
# Experimental: “BORG Score” as used herein refers to a measurement of dyspnea in accordance with the Borg scale. On that scale 0 represents no breathlessness at all and 10 represents maximum breathlessness.
# as §1, §2, §3, §4, §5, §6, §7
# (§9) Key efficacy endpoints: • FEV1 improvement from baseline at Day 5 • BORG Scores • EXACT PRO: • Recovery defined as reduction in EXACT score ≧9 points benchmarked against the maximum observed score (MOV: highest EXACT score using a 3-day rolling average) over the 14 day period following onset. • Time to recovery • Severity • Maximum severity—highest exact score over 30 days • Total severity—area under the curve from onset (i.e. Day 1) to recovery/Day 30 whichever comes first based on total exact score. • Duration of exacerbation (days from onset to recovery/Day 30) • Frequency of patients who recovered at Day 30 • Treatment failure: • Patients who were treated with oral corticosteroids, admitted to hospital to COPD related symptoms, changed in antibiotic therapy relating to COPD, or in the attending physicians opinion needed treatment for a further exacerbation.
# LS is an abbreviation for least squares.
# [4] = test system: patients who have an acute COPD exacerbation; assay: Clinical study in acute COPD exacerbation: treatment failure composite endpoint; format: in vivo, human; settings: retreatment with antibiotics, oral steroids, death, hospitalization or treatment indicating another exacerbation
# Experimental: as §1, §2, §3, §4, §5, §6
# =doxycycline 100 mg dose×10 days or a non-macrolide antibiotic concurrent with local prescribing antibiotic guidelines. […]
# [5] = test system: patients who have an acute COPD exacerbation; assay: Clinical study in acute COPD exacerbation: efficacy measured by FEV1; format: in vivo, human; settings: for FEV1 change from baseline, Difference, Compound A v prednisone: single 75 mg oral Compound A v 40 mg oral prednisone x 10 days; for FEV1 change from baseline, Difference, Compound A v placebo: single 75 mg oral dose of Compound A, ANCOVA repeated measurements
# Experimental: “Forced Expiratory Volume in One Second” or “FEV1” as used herein is the volume of air that can forcibly be blown out in one second, after full inspiration, which is measured by a spirometer. It is a measure of lung function or performance. Average values for FEV1 in healthy people depend mainly on sex and age. Values of between 80% and 120% of the average value are considered normal.
# as §1, §2
# Primary objective: Assess the efficacy of a single 75 mg dose of Compound A in COPD patients presenting with an exacerbation as measured by the improvement in FEV1 over the first 5 days of treatment relative to placebo.
# as §3, §4, §5, §6, §7
# Visits at Days 3, 5 and 14 and follow-up visits 30 and 90 days. End of study visit at 6 months.
# as §8
# Inclusion criteria for the study population were: • Males/females ≧40 to ≦80 years • GOLD stages 2 to 4 • Smoking history at least 10 pack years • Investigator defined COPD exacerbation
# Exclusion criteria for the study population were: • Arterial blood pH <7.26 at randomization • History or presence of clinically uncontrolled left heart failure • Clinical or radiological evidence of pneumonia • Long term Oxygen >15 hours a day • History of clinically significant ECG abnormalities • History or presence of impaired renal function • Use of macrolide antibiotics within 48 hours of randomization
# as §9
# FEV1 change from baseline analysed with ANCOVA ([…]) model for repeated measurements. Estimated between patient standard deviation—200 ml.
# [6] = Compound A N = 31, Prednisone N = 30
smiles,measurement,setting,value
"C[C@]12C=CC(=O)C=C1CC[C@@H]1[C@@H]2C(=O)C[C@@]2(C)[C@H]1CC[C@]2(O)C(=O)CO [Prednisone, prednisone, reference compound]",Reason for discontinuation: Death,[1],2 (6.7) n (%)
same,Reason for discontinuation: Adverse Events,[1],0 (0.0) n (%)
same,Number of subjects with AE: Abdominal pain upper,[2]; [6],1 (3.3) n (%)
same,Number of subjects with AE: Any AE,[2]; [6],12 (40.0) n (%)
same,Number of subjects with AE: COPD,[2]; [6],5 (16.7) n (%)
same,Number of subjects with AE: Diarrhoea,[2]; [6],0 (0.0) n (%)
same,Number of subjects with AE: Dizziness,[2]; [6],0 (0.0) n (%)
same,Number of subjects with AE: Headache,[2]; [6],3 (10.0) n (%)
same,Number of subjects with AE: Nasopharyngitis,[2]; [6],1 (3.3) n (%)
same,Number of subjects with AE: Nausea,[2]; [6],2 (6.7) n (%)
same,Number of subjects with AE: Occult blood,[2]; [6],1 (3.3) n (%)
same,Number of subjects with AE: Vertigo,[2]; [6],1 (3.3) n (%)
same,"AUC[days 2-14] in Borg CR 10 scores (adjusted for Day 1), LS mean",[3]; days 2-14,3.61
same,"AUC[days 2-14] in Borg CR 10 scores, Difference LS mean, treatment - placebo","[3]; days 2-14, adjusted for Day 1",0.13
"Cc1ccc(C(=O)NC2CC2)cc1-n1ncc(C(=O)c2cccc(C#N)c2)c1N [Compound A, 3-[5-Amino-4-(3-cyanobenzoyl)-pyrazol-1-yl]-N-cyclopropyl-4-methylbenzamide]",Reason for discontinuation: Death,[1],0 (0.0) n (%)
same,Reason for discontinuation: Adverse Events,[1]; 30 days,0 (0.0) n (%)
same,COPD adverse events,"[2]; human, in vivo",No COPD adverse events were observed
same,Number of subjects with AE: Abdominal pain upper,"[2]; human, in vivo",1 (3.2) n (%)
same,Number of subjects with AE: Any AE,"[2]; human, in vivo",8 (25.8) n (%)
same,Number of subjects with AE: COPD,"[2]; human, in vivo",0 (0.0) n (%)
same,Number of subjects with AE: Diarrhoea,"[2]; human, in vivo",1 (3.2) n (%)
same,Number of subjects with AE: Dizziness,"[2]; human, in vivo",2 (6.5) n (%)
same,Number of subjects with AE: Headache,"[2]; human, in vivo",1 (3.2) n (%)
same,Number of subjects with AE: Nasopharyngitis,"[2]; human, in vivo",1 (3.2) n (%)
same,Number of subjects with AE: Nausea,"[2]; human, in vivo",0 (0.0) n (%)
same,Number of subjects with AE: Occult blood,"[2]; human, in vivo",1 (3.2) n (%)
same,Number of subjects with AE: Vertigo,"[2]; human, in vivo",1 (3.2) n (%)
same,Safety and tolerability,"[2]; human, in vivo",safe and well tolerated
same,Breathlessness over 14 days compared with prednisone,[3]; over 14 days,on average less breathless
same,"AUC[days 2-14] in Borg CR 10 scores (adjusted for Day 1), LS mean",[3]; days 2-14,3.25
same,"AUC[days 2-14] in Borg CR 10 scores, Difference LS mean, treatment - placebo","[3]; days 2-14, adjusted for Day 1",−0.23
same,"AUC[days 2-14] in Borg CR 10 scores, Difference LS mean, Compound A - prednisone","[3]; versus prednisone, days 2-14, adjusted for Day 1",−0.36
same,Treatment failures (composite endpoint),[4],0 patients
same,Improvement in FEV1 versus placebo and prednisone,[5]; Day 3,greater improvement in FEV1
same,"FEV1 change from baseline, Difference, Compound A v prednisone",[5]; Day 3,102.28 mL
same,"FEV1 change from baseline, Difference, Compound A v placebo",[5]; Day 3,119.59 mL
same,"FEV1 change from baseline, Difference, Compound A v prednisone",[5]; Day 5,109.15 mL
same,"FEV1 change from baseline, Difference, Compound A v placebo",[5]; Day 5,46.56 mL
same,Patients who responded with >100 ml improvement (FEV1),"[5]; day 3, single 75 mg oral dose",60%
